In patent publication US8431527B2, “Methods for alleviating deleterious effects of 3-deoxyglucosone” (Fox Chase Cancer Center, priority 1997, dated 2013):
One block for each molecule: values may come before it.

Legend:
[1] = tested on: 3-deoxyglucosone; assay: Reduction of urinary and plasma 3-deoxyglucosone after intraperitoneal injection; assay type: in vivo; details: rats, 10 μmols intraperitoneal
Procedure: Urine was collected from six rats for three hours. A plasma sample was also obtained. The animals were then given 10 μmols of either sorbitollysine, mannitollysine, or galactitollysine by intraperitoneal injection. Urine was collected for another three hours, and a plasma sample obtained at the end of the three hours.
3-deoxyglucosone was measured in these samples, as described in Example 5, below, and variable volumes were normalized to creatinine. The average reduction of urinary 3-deoxyglucosone was 50% by sorbitollysine, 35% by mannitollysine and 35% by galactitollysine. Plasma 3-deoxyglucosone was reduced 40% by sorbitollysine, 58% by mannitolysine and 50% by galactitollysine.
c. Use of meglumine to reduce urinary 3-deoxyglucosone. Three rats were treated as in b), immediately above, except meglumine (100 μmols) was injected intraperitoneally instead of the above-mentioned lysine derivatives. Three hours after the injection the average 3-deoxyglucosone concentrations in the urine were decreased 42%.
3DG was measured by GC-MS after deionization of the sample. 3DG was derivatized with a 10-fold excess of diaminonaphthalene in PBS. Ethyl acetate extraction gave a salt free fraction which was converted to the trimethyl silyl ethers with Tri-Sil (Pierce). […] Quantitation of 3DG employed selected ion monitoring using an internal standard of U-13C-3DG.

[2] = tested on: FL3P; assay: Kidney FL3P after injection of synthetic fructose-lysine; assay type: in vivo; details: non-diabetic rats
Procedure: This identification was confirmed in two ways. Authentic fructose-lysine-3-phosphate (FL3P) was synthesized by the procedure disclosed in Example 2, below, and shown to co-resonate in the ^31P NMR spectrum with the peak in diabetic rat kidneys. Synthetic fructose-lysine was also injected into non-diabetic rats.

[3] = tested on: kidney proteins; parameters: species or system rats; details: rat, in vivo
Procedure: Two rats were injected daily with 5 μmols. of either FL or mannitol (used as a control) for 5 days. The animals were sacrificed and the kidneys removed and dissected into the cortex and medulla. Tissues were homogenized in 5 volumes of 50 mM Tris.HCl containing 150 mM KCl, 15 mM MgCl2 and 5 mM DTT, pH 7.5. Cellular debris was removed by centrifugation at 10,000 g for 15 minutes, and the supernate was then centrifuged at 150,000 g for 70 minutes. The soluble proteins were analyzed by SDS PAGE on 12% polyacrylamide gels as well as on 4-15 and 10-20% gradient gels.

[4] = tested on: lysine recovery pathway; assay: Urinary FL, 3DG and 3DF in humans following ingestion of glycated protein; assay type: in vivo; details: seven volunteers, 2 g dose of fructoselysine as glycated protein food
Procedure: c. Experimental protocol: Volunteers spent two days on a fructoselysine-free diet and then consumed 22.5 g of the food product prepared as described herein, thus effectively receiving a 2 g. dose of fructoselysine. Urine was collected at 2 hour intervals for 14 hours and a final collection was made at 24 hours. d. Measurement of FL, 3DG and 3DF in urine: FL was measured by HPLC with a Waters 996 diode Array using a Waters C18 Free Amino Acid column at 46° and a gradient elution system of acetonitrile-methyl alcohol-water (45:15:40) into acetonitrile-sodium acetate-water (6:2:92) at 1 ml./min. Quantitation employed an internal standard of meglumine. 3DF was measured by HPLC after deionization of the sample. Analyses were performed on a Dionex DX-500 HPLC system employing a PA1 column (Dionex) and eluting with 32 mM sodium hydroxide at 1 ml./min. Quantitation was performed from standard curves obtained daily with synthetic 3DF. 3DG was measured by GC-MS after deionization of the sample. 3DG was derivatized with a 10-fold excess of diaminonaphthalene in PBS. Ethyl acetate extraction gave a salt free fraction which was converted to the trimethyl silyl ethers with Tri-Sil (Pierce). Analysis was performed on a Hewlett-Packard 5890 selected ion monitoring GC-MS system. […] Quantitation of 3DG employed selected ion monitoring using an internal standard of U-13C-3DG.

[5] = tested on: 3DG; assay: 3-O-methyl sorbitollysine lowers plasma 3DG in diabetic and non-diabetic rats; assay type: in vivo; details: Day 8
Procedure: A cohort of twelve diabetic rats was divided into two groups of six. The first group received saline-only injections, and the second received injections of 3-O-methyl sorbitollysine in saline solution. The same procedure was conducted on a cohort of twelve non-diabetic rats.

[6] = Locus of 3-O-methyl sorbitollysine uptake in vivo (tissue, urine, plasma recovery); parameters: species or system rats
Procedure: Six rats were injected intraperitoneally with […] (4.4 mg) of 3-O-methyl sorbitollysine. The rats' urine was collected for 3 hours, after which the rats were sacrificed. The tissues to be analyzed were removed and freeze clamped in liquid nitrogen. Perchloric acid extracts of the tissues were used for metabolite analysis. The tissues examined were taken from the brain, heart, muscle, sciatic nerve, spleen, pancreas, liver and kidney. Plasma and urine were also analyzed.

[7] = Stability of FL3P in aqueous solution; assay type: physicochemical; details: degrades to 3DG, lysine and inorganic phosphate
From the text: FL3P is not stable in aqueous solution. It rapidly degrades to form 3DG, lysine and inorganic phosphate. This reaction also occurs in vivo. It is not currently know if the degradation of FL3P in vivo is a spontaneous or enzyme catalyzed reaction. It is strongly suspected, however, that enzymatic catalysis is involved, as the production of 3DG from fructose lysine occurs very rapidly in intact kidney.

[8] = 3 hours after intraperitoneal injection

Molecule: galactitol lysine [galactitollysine]
plasma 3-deoxyglucosone reduced ([1]; plasma at end of three hours): 50%
average reduction of urinary 3-deoxyglucosone ([1]; urine collected three hours after vs before, normalized to creatinine): 35%

Molecule: NC(CCCCNCC(=O)C(O)C(O)C(O)CO)C(=O)O (centres unmarked) [FL, 1-deoxy-1-(ε-aminolysine)-fructose]
levels of FL3P in kidneys following injection [2]: substantial increase
SDS PAGE of soluble kidney proteins vs mannitol-injected animal [3]: lower molecular weight bands were missing or visually reduced
time of peak urinary 3DF excretion after the FL bolus [4]: about 4 hours

compound present in plasma [6, 8]: plasma did not
Molecule: COC(C(O)CNCCCCC(N)C(=O)O)C(O)C(O)CO (centres unmarked) [3-O-methyl Sorbitollysine, 3-O-methyl sorbitollysine]
percent reduction of plasma 3DG vs saline control ([5]; diabetic rats): 53%
percent reduction of plasma 3DG vs saline control ([5]; non-diabetic rats): 43%
tissue extracts containing compound (brain, heart, muscle, sciatic nerve, spleen, pancreas, liver, kidney) [6, 8]: only tissue extract found to contain 3-O-methyl sorbitollysine was that of the kidney
compound present in urine ([6]; urine collected for 3 hours): urine also contained 3-O-methyl sorbitollysine

Molecule: NC(CCCCNCC(=O)C(OP(=O)(O)O)C(O)C(O)CO)C(=O)O (centres unmarked) [FL3P, fructose-lysine-3-phosphate]
stability in aqueous solution [7]: not stable
